Data set [1] relates to Escherichia coli. Nature of the data set: Antibacterial activity against Escherichia coli assessed as bacterial growth inhibition measured after 24 hrs by broth dilution assay. The class given is functional, organism-based. The note with it: for MIC: time 24 hrs; for pIC50: 24 h.
Data set [2] concerns Staphylococcus aureus. Nature of the data set: Antibacterial activity against Staphylococcus aureus assessed as bacterial growth inhibition measured after 24 hrs by broth dilution assay. The note with it: for MIC: time 24 hrs; for pIC50: 24 h. The class given is functional, organism-based.
In data set [3] the test system is Escherichia coli. Nature of the data set: Antibacterial activity against Escherichia coli assessed as minimum concentration required to decrease 90% bacteria measured after 24 hrs by broth dilution assay. The class given is functional. A general note: Dilution methods test growth across graded concentrations, often in twofold steps.
In data set [4] the test system is Staphylococcus aureus. Nature of the data set: Antibacterial activity against Staphylococcus aureus assessed as minimum concentration required to decrease 90% bacteria measured after 24 hrs by broth dilution assay. It counts as functional.
Data set [5] relates to Escherichia coli. Nature of the data set: Antibacterial activity against Escherichia coli assessed as zone of inhibition at 25 to 100 ug by disc diffusion method. It counts as functional, organism-based. To be noted: dose 25-100 µg.
Data set [6] can be described thus: Cytotoxicity against human HEK293 cells assessed as viable cells at 50 uM after 48 hrs by calcein-AM staining based fluorescence analysis. To be noted: read-out: Activity. The class given is cell-based.
In data set [7] the test system is Cell membrane. Nature of the data set: Induction of cell membrane permeabilization in Escherichia coli assessed as increase in propidium iodide intake at MIC by propidium iodide staining based assay. The note with it: TDE = time-dependent effect.
For data set [8], the system named is Cell membrane. The experiment in a line: Induction of cell membrane permeabilization in Staphylococcus aureus assessed as increase in propidium iodide intake at MIC by propidium iodide staining based assay. The note with it: time 48.0 hrs, TDE = time-dependent effect.
Data set [9] has as its system Staphylococcus aureus. Nature of the data set: Antibacterial activity against Staphylococcus aureus assessed as zone of inhibition at 25 to 100 ug by disc diffusion method. The class given is functional, organism-based. To be noted: dose 25-100 µg. On the technique in general: In agar diffusion tests the substance spreads into inoculated agar from a disc or well.

pIC50: −log10 of the molar value. Converted amounts (≈) assume the structure as drawn. The source made the active and inactive calls. A value given as a limit tells only on which side of the number the result lay.

The MIC is the lowest concentration that inhibits growth of the organism. A word on the pIC50: it is the negative decadic logarithm of the IC50, by convention in mol/L. The term MBC denotes the smallest concentration meeting the test's criterion for killing.

As to `COc1c(Br)cc(Br)c(/C=C/C(=O)NCCCNCc2cccc(CNCCCNC(=O)/C=C/c3c(Br)cc(Br)c(OC)c3Br)c2)c1Br`, the minimum inhibitory concentration (MIC) in the data set with Escherichia coli [1] and in the data set on Staphylococcus aureus [2] was above 200 µM throughout.

Regarding `COc1cc(/C=C\C(=O)NCCCNCc2cccc(CNCCCNC(=O)/C=C\c3cc(OC)c(Br)cc3Br)c2)c(Br)cc1Br`, the figures for the pIC50 in the data set with Escherichia coli [1] and in the data set with Staphylococcus aureus [2] were 4.43 and 4.86, respectively. Moreover, the minimal inhibitory concentration (MIC) with Escherichia coli [1] was found to be 25 µM (≈ 22.2 µg/mL); in the data set with Staphylococcus aureus [2], 50 µM (≈ 44.3 µg/mL). The minimum bactericidal concentration (MBC) worked out at 25 µM (≈ 22.2 µg/mL) in the data set on Escherichia coli [3] and 50 µM (≈ 44.3 µg/mL) in the data set with Staphylococcus aureus [4]. In addition, the inhibition result with Escherichia coli [5] and in the data set with Staphylococcus aureus [9] was “Active” each time. Further, in [6], the viability at 48 h, 50 µM is above 95%. Further, the Activity entry in the data set on Cell membrane [7] and in the data set with Cell membrane [8] was “Tde” each time.

As to `COc1c(Br)cc(/C=C/C(=O)NCCCNCc2cccc(CNCCCNC(=O)/C=C/c3cc(Br)c(OC)c(Br)c3)c2)cc1Br`, the minimum inhibitory concentration (MIC) in the data set on Escherichia coli [1] and in the data set with Staphylococcus aureus [2] was above 200 µM each time.

For the molecule `CC1(C)S[C@@H]2[C@H](NC(=O)[C@H](N)c3ccccc3)C(=O)N2[C@H]1C(=O)O` [AMPICILLIN], the pIC50 in the data set with Escherichia coli [1] is 4.47; in the data set with Staphylococcus aureus [2] it was 5.42.

These data come from ChEMBL document CHEMBL4732248, “Synthesis and antibacterial activities of marine natural product ianthelliformisamines and subereamine synthetic analogues” (Bioorg Med Chem Lett, 2021).
